Measured values reported in PMC11215077, “Antiviral activity of temporin-1CEb analogues against gingival infection with herpes simplex virus type 1” (Frontiers in Oral Health, 2024).
In brackets after ≈: the same amount, converted by molar mass. Square brackets hold non-standard residues; d marks the D form. Peptide text beside a SMILES is read from it. AEEA = NCCOCCOCC(=O)O

Assays:
HSV-1 [1] = details: concentration reducing viral replication by 50%; TIGKs cells pre-treated, infected and cultivated with compound; qPCR; mean of two independent experiments
Method: Vero E6 or TIGKs cells were seeded in 12-well plates and cultured for 48 h. […] After 30 min of incubation at 37°C, cells were infected with HSV-1 at TCID50 400 /ml or treated with mock. After 2 h of infection at 37°C, unbound viral particles were removed by washing with PBS, and culture media supplemented with peptide conjugates were applied. Following 48 h of incubation, media were collected, and the quantity of HSV-1 DNA copies was assessed using titration and qPCR.
Data were expressed as means ± SD. Statistical significance was determined using unpaired t-test, one-way ANOVA, and/or two-way ANOVA for direct comparisons between single groups. A p-value <0.05 was considered statistically significant. We used GrapPad Prism 10 software for the analyses. […]

HSV-1 [2] = test: Attachment (adsorption) assay in TIGKs cells; assay type: cell-based, herpes simplex virus type 1; details: 15 μg/ml present only during infection, 2 h at 4°C, 48 h
Method: HSV-1 stocks were generated by infecting Vero E6 cells. Cells were lysed at 48 h p.i. by two freeze-thaw cycles. The virus containing fluid was aliquoted and stored at −80°C. A control Vero E6 cell lysate from mock-infected cells was prepared in the same manner as the virus stock. Virus yield was assessed by virus titration on fully confluent Vero E6 cells in 96-well plates, according to the method of Reed & Muench ([32]). Plates were incubated at 37°C for 48 h and the occurrence of a cytopathic effect was scored using an inverted microscope, and TCID50 (50% tissue culture infection dose) was calculated.
TIGKs cells were seeded in 12-well plates and cultured for 48 h. Next, keratinocytes were infected with HSV-1 (TCID50 400 /ml) or treated with mock in the presence of DAL-PEG-LK6 or CPP1-PEG-LK6 (15 μg/ml) for 2 h at 4°C. […] Next, samples were collected, and viral yield was determined using titration and qPCR.
(§1) Viral DNA was isolated from the conditioned media or the apical washes of inserts (OTG model) using Viral DNA/RNA Isolation Kit (A&A Biotechnology). The virus yield assessed by quantitative real-time PCR (qPCR). […] DNA quantification standards were prepared. […] The number of copies per mL was estimated after the concentration of linearized DNA was assessed spectrophotometrically.

[3] = test system: HSV-1 clinical strains (294.1, 615.9, C08R, C10B); test: Viral replication assay with HSV-1 clinical strains; assay type: cell-based, herpes simplex virus type 1; details: 15 μg/ml, qPCR 48 h p.i.
Method: HSV-1 strain F was acquired from American Type Culture Collection (VR 733). Clinical isolates of HSV-1 (294.1, 615.9, C08R, C10B) were kindly provided by Donald M. Coen from Department of Biological Chemistry and Molecular Pharmacology, Harvard Medical School, Boston. HSV-1 strains were propagated and titrated on Vero cells.
Vero E6 or TIGKs cells were seeded in 12-well plates and cultured for 48 h. Next, the medium was removed and replaced with a fresh medium supplemented with DAL-PEG-LK6 and CPP1-PEG-LK6 (15 μg/ml). After 30 min of incubation at 37°C, cells were infected with HSV-1 at TCID50 400 /ml or treated with mock. After 2 h of infection at 37°C, unbound viral particles were removed by washing with PBS, and culture media supplemented with peptide conjugates were applied. Following 48 h of incubation, media were collected, and the quantity of HSV-1 DNA copies was assessed using titration and qPCR.
as §1

[4] = Analytical RP-HPLC retention time; details: Phenomenex Jupiter 4 μ Proteo 90 Å, 250 × 4.60 mm, listed as basic physicochemical characteristic
Method: The synthesized compounds were then purified by reverse-phase high-performance liquid chromatography (RP-HPLC) on a Waters system (Phenomenex Jupiter 4 μ Proteo 90 Å column, 250 × 10 mm). A linear gradient from 10% to 80% of solvent B over 60 min (Solvent A: 0.1% TFA in water; Solvent B: 80% acetonitrile in Solvent A) was employed with a flow rate 5 ml/min. The homogeneity of the final peptide fractions was analyzed using a Shimadzu HPLC System (Shimadzu Europe GmbH, Duisburg, Germany) equipped with a Phenomenex Jupiter 4 μ Proteo 90 Å column, 250 × 4.60 mm. The mass spectra of the synthesized peptides were recorded using a Biflex III MALDI-TOF mass spectrometry (Bruker, Mannheim, Germany) with α-cyano-4-hydroxy-cinnamic acid (CCA) or 2,5-dihydroxybenzoic acid (DHB) used as the matrix.

HSV-1 [5] = test: Antiviral activity in 3D organotypic model of human gingiva (OTG); assay type: cell-based, herpes simplex virus type 1
Method: Protocol was described previously ([34]). Briefly, to prepare 3D cultures, 150,000 gingival fibroblasts suspended in 10% FBS in DMEM were mixed with 2.4 ml of ice-cold Matrigel® (Corning) (final concentration 7 mg/ml) and placed in the middle of 12-well cell culture inserts (Greiner). Three days later, 1 × 10^6 TIGK cells suspended in EPM1 were added to the top of the insert. On the ninth day after the start of the procedure, the old culture medium was removed and EPM2 was added to the bottom of the insert. The epithelial layer on the top was exposed to the air, which promotes epithelial differentiation and then stratification. About 8–10 days after air-liquid interphase, 3D cultures of gingiva were used for further experiments.
The apical surface of OTG model was washed three times with PBS and then inoculated with 100 μl of viral stock (TCID50 400 /ml) in the presence of DAL-PEG-LK6 or CPP1-PEG-LK6 (15 μg/ml) for 2 h at 4°C. Following incubation, the unbound HSV-1 was removed by washing with PBS for 10 min at 37°C, and the OTG cultures were maintained at an air-liquid interface for the rest of the experiment. To determine viral yield, 120 μl of PBS was applied to the apical surface of the OTG, and harvested for DNA isolation after 10 min of incubation at 37°C.
Briefly, cell inserts were fixed in 10% formaldehyde at 4°C for 1 h. After embedding in paraffin, 3D cultures were cut into 5 μm sections and stained with H&E solution. For immunohistochemical analysis, slides were incubated for 1 h at room temperature in blocking buffer (5% normal goat serum, 0.1% saponin in PBS) and stained with primary antibodies anti-HSV-1 (1:100, 1% normal goat serum, 0.1% saponin in PBS; Abcam) and secondary antibodies: goat anti-rabbit conjugated with Alexa Fluor 488 (1:2000; Cell Signaling). Finally, cell nuclei were stained with ProLong Antifade Mounting Medium with DAPI. Slides were visualized with EVOS FL Cell Imaging System (Thermo Fisher Scientific).
Viral DNA was isolated from the conditioned media or the apical washes of inserts (OTG model) using Viral DNA/RNA Isolation Kit (A&A Biotechnology). The virus yield assessed by quantitative real-time PCR (qPCR). The reaction was carried out in a CFX96 Touch Real-Time PCR Detection System (Bio-Rad), in a 10 μl reaction mixture consisting of TaqMan^TM Fast Advanced Master Mix, TaqMan^TM Microbe Detection assay against HSV-1 (Vi04230116_s1) and 1 μl of viral DNA. The temperature profile was 10 s at 95°C, followed by 40 cycles of 3 s at 95°C and 20 s at 60°C. DNA quantification standards were prepared. In summary, a fragment of viral DNA was amplified using the primers listed above and cloned into the pTZ57R/T plasmid using the InsTAclone PCR cloning kit. The plasmid was propagated in E. coli, purified with the GeneJet Plasmid Miniprep Kit, and digested with the EcoR1 restriction enzyme. The number of copies per mL was estimated after the concentration of linearized DNA was assessed spectrophotometrically.

Method for in vitro: The viability of Vero E6 and TIGKs cells was examined by the XTT Cell Viability Assay kit (Biological Industries, USA). Briefly, cells were treated with indicated concentrations of the peptide conjugates for 48 h at 37°C. Next, the fresh medium was added to the cells and 50 μl of the activated XTT reagent [2,3-bis(2-methoxy-4-nitro-5-sulphenyl)-2H-tetrazolium-5-carboxanilide] was added and further incubated for 2 h at 37°C. Absorbance was measured at a wavelength of 480 nm using FlexStation 3 microplate reader (Molecular Device, Wokingham, UK). The results were expressed normalized against a control of untreated cells (100% viability). To assess the effect of peptide conjugate on the integrity of the plasma membrane, the LDH release assay was performed using the CytoTox96 nonradioactive cytotoxicity assay kit (Promega, Madison, WI, USA) according to the manufacturer's instructions. Cytotoxicity was calculated with the formula: % cytotoxicity = 100 × (experimental LDH release/ maximum LDH release), where maximum LDH release is after lysis solution addition (Triton X-100). Relative amounts of LDH release were measured (absorbance at 490 nm) using FlexStation 3 microplate reader (Molecular Device, Wokingham, UK). […]
Data were expressed as means ± SD. Statistical significance was determined using unpaired t-test, one-way ANOVA, and/or two-way ANOVA for direct comparisons between single groups. […]

CC[C@H](C)[C@H](NC(=O)COCCOCCNC(=O)[C@@H](NC(=O)[C@H](CC(C)C)NC(=O)[C@H](Cc1ccc(O)cc1)NC(=O)[C@@H](NC(=O)[C@H](Cc1ccccc1)NC(=O)[C@@H]1CCCN1)C(C)C)[C@@H](C)CC)C(=O)N[C@@H](CCCCN)C(=O)N[C@@H](CCCCN)C(=O)N[C@H](C(=O)N[C@@H](CC(C)C)C(=O)N[C@@H](CO)C(=O)N[C@@H](CCCCN)C(=O)N[C@H](C(=O)N[C@@H](CCCCN)C(=O)N[C@@H](CCCCN)C(=O)N[C@@H](CC(C)C)C(=O)N[C@@H](CC(C)C)C(=O)N[C@@H](CCCCN)C(N)=O)[C@@H](C)CC)[C@@H](C)CC [CPP1-PEG-LK6] (H-PFVYLI[AEEA]IKKILSKIKKLLK-NH2)
IC50 (HSV-1 [1]): 0.942 µg/mL (≈ 0.388 µM)
decrease in viral yield, attachment assay, qPCR (HSV-1 [2]; Figure 2D): ~95%
decrease in viral titer, attachment assay, titration (HSV-1 [2]; Figure 2E): ~97%
activity against HSV-1 clinical strains ([3]; Figure 4): inhibits all selected HSV-1 clinical strains
inhibition of replication of clinical strains ([3]; all tested strains: 294.1, C08R (drug-sensitive), 615.9, C10B (drug-resistant)): ~3 logs
Rt [4]: 25.247
reduction of viral yield in OTG at 48 h (HSV-1 [5]; 15 μg/ml during inoculation 2 h at 4°C, apical washes, qPCR, 48 h post-viral inoculation): 3 logs
reduction of viral yield in OTG at 72 h (HSV-1 [5]; 15 μg/ml during inoculation 2 h at 4°C, apical washes, qPCR, 72 h post-viral inoculation): 2 logs
morphology of epithelial cells in OTG (H&E) (HSV-1 [5]; 15 μg/ml, H&E stained sections, Figure 5A): no changes in the morphology of epithelial cells
HSV-1-positive cells in OTG sections (immunohistology) (HSV-1 [5]; 15 μg/ml, anti-HSV-1 immunofluorescence, Figure 5B): absent
CC50 at 48 h (in vitro): 23.4 µg/mL (≈ 9.63 µM)
